Source: patent US11214803B2, “Modulators of YAP1 expression” (Ionis Pharmaceuticals, Inc., priority 2019, dated 2022)
Strand notation (5' to 3'): a small letter for the sugar, then the base; units joined by * are phosphorothioate-linked, units joined directly phosphodiester-linked; [ ] holds rarer units or linkages, { } end groups; capitals alone tell only the bases. k = constrained ethyl (cEt); [5mC] = 5-methylcytosine; d = 2'-deoxy (DNA)

The substances below were run on Yap1 mRNA (assay: Antisense inhibition of human Yap1 in A-431 cells by cEt gapmers, single dose (Example 1, RTS4814)). Conditions: A-431 cells, 5,000 cells per well, free uptake, 2,000 nM modified oligonucleotide, approx. 48 hours, RTS4814, normalized to RIBOGREEN; Table 3.
Assay type: cell-based
In short: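 Free uptake of 2,000 nM 3-10-3 cEt gapmer (16-mer, full phosphorothioate, 5-methylcytosines) in A-431 cells for ~48 h. Yap1 mRNA quantified by qRT-PCR with set RTS4814, normalized to total RNA (RiboGreen), and expressed as % of untreated control; asterisked values target the amplicon region.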

Substance | YAP1 (% UTC)
715495 (antisense kA*k[5mC]*kA*dG*dA*dG*dG*dT*dG*d[5mC]*dT*dA*dG*k[5mC]*kT*kG) [Compound 715495] | 80
715402 (kA*kG*kG*dA*dG*dT*d[5mC]*dG*dG*dG*d[5mC]*dA*dG*k[5mC]*kT*kT; antisense) [Compound 715402] | 59
715603 (antisense kG*k[5mC]*kA*d[5mC]*dA*dG*dA*dA*dT*dT*d[5mC]*d[5mC]*d[5mC]*kA*kA*kG) [Compound 715603] | 106
715423 (k[5mC]*k[5mC]*kA*dT*dG*dT*dT*dG*dT*dT*dG*dT*d[5mC]*kT*kG*kA; antisense) [Compound 715423] | 30
715453 (antisense kA*kG*kG*dT*dG*d[5mC]*d[5mC]*dA*d[5mC]*dT*dG*dT*dT*kA*kA*kG) [Compound 715453] | 59
715630 (antisense kA*kA*kG*dA*dG*d[5mC]*d[5mC]*dT*dA*d[5mC]*d[5mC]*dT*dG*kA*k[5mC]*kA) [Compound 715630] | 94
715609 (antisense kT*kG*kT*dG*dT*dA*dG*dG*d[5mC]*dT*dG*dA*d[5mC]*kT*kT*kA) [Compound 715609] | 56
715597 (antisense k[5mC]*kT*kG*dG*dT*dT*d[5mC]*dA*dT*dG*dG*d[5mC]*dT*kG*kA*kA) [Compound 715597] | 89
715447 (antisense k[5mC]*kA*kA*dT*dT*d[5mC]*d[5mC]*dT*dG*dA*dG*dA*d[5mC]*kA*kT*k[5mC]) [Compound 715447] | 81
715582 (kG*kT*k[5mC]*dA*dA*dG*d[5mC]*d[5mC]*dT*dG*dT*d[5mC]*dT*kG*kG*kA; antisense) [Compound 715582] | 33
715462 (antisense kT*k[5mC]*kT*d[5mC]*dA*dT*d[5mC]*dT*d[5mC]*dG*dA*dG*dA*kG*kT*kG) [Compound 715462] | 94
715573 (kT*kA*kT*dA*dT*dA*dT*dG*dG*dT*dA*dG*dT*k[5mC]*kT*kA; antisense) [Compound 715573] | 76
715486 (antisense kT*kA*k[5mC]*dT*dT*d[5mC]*dA*dT*dA*dG*d[5mC]*dT*dT*kA*kT*kA) [Compound 715486] | 27
715435 (antisense kG*kG*kT*d[5mC]*dT*dT*dG*dT*dT*d[5mC]*dT*dT*dA*kT*kG*kG) [Compound 715435] | 36
715441 (antisense k[5mC]*kT*k[5mC]*dT*dG*dG*dT*dT*d[5mC]*dA*dT*dG*dG*k[5mC]*kA*kA) [Compound 715441] | 57
715534 (kT*k[5mC]*k[5mC]*d[5mC]*d[5mC]*dA*dG*dG*dT*d[5mC]*dA*dG*d[5mC]*kA*kT*kG; antisense) [Compound 715534] | 112
715411 (kG*k[5mC]*kA*dT*d[5mC]*dA*dG*dT*dA*d[5mC]*dT*dG*dG*k[5mC]*k[5mC]*kT; antisense) [Compound 715411] | 94
715558 (k[5mC]*kA*kG*dG*dA*dA*dG*dT*dT*dA*dT*dT*d[5mC]*kA*kG*k[5mC]; antisense) [Compound 715558] | 37
715561 (k[5mC]*kA*k[5mC]*dA*dA*d[5mC]*dT*d[5mC]*dA*dG*dA*d[5mC]*dA*kG*kG*kG; antisense) [Compound 715561] | 69

Same assay, conditions: Table 1; A-431 cells, free uptake, 2,000 nM, approximately 48 hours, RTS4814; Yap1 mRNA relative to untreated control cells

Substance | YAP1 (% UTC)
715481 (antisense kT*kT*kG*dG*dA*dA*dA*d[5mC]*d[5mC]*dA*dT*dT*dA*kT*kT*kA) [Compound 715481] | 66
715559 (k[5mC]*kT*kG*d[5mC]*d[5mC]*dA*dT*dT*dT*dA*dA*dG*dA*kA*kA*kT; antisense) [Compound 715559] | 114
715421 (kG*kT*kG*dA*dT*dT*dT*dA*dA*dG*dA*dA*dG*kT*kA*kT; antisense) [Compound 715421] | 71
715502 (antisense k[5mC]*k[5mC]*kA*dG*dA*d[5mC]*dT*dT*dA*dA*dT*dT*d[5mC]*kA*kA*kG) [Compound 715502] | 91
715610 (antisense kG*kG*k[5mC]*dT*dG*dT*dG*dT*dA*dG*dG*d[5mC]*dT*kG*kA*k[5mC]) [Compound 715610] | 87
715451 (antisense k[5mC]*kA*kT*dT*dG*dT*dT*d[5mC]*dT*d[5mC]*dA*dA*dT*kT*k[5mC]*k[5mC]) [Compound 715451] | 75
715412 (k[5mC]*kT*kG*d[5mC]*dA*dT*d[5mC]*dA*dG*dT*dA*d[5mC]*dT*kG*kG*k[5mC]; antisense) [Compound 715412] | 66
715631 (antisense kA*kT*kA*dA*dG*dA*dG*d[5mC]*d[5mC]*dT*dA*d[5mC]*d[5mC]*kT*kG*kA) [Compound 715631] | 134
715490 (antisense k[5mC]*k[5mC]*kA*dA*d[5mC]*dT*dA*dT*dT*dA*d[5mC]*dT*dT*k[5mC]*kA*kT) [Compound 715490] | 38
715415 (k[5mC]*kG*kA*dA*d[5mC]*dA*dT*dG*d[5mC]*dT*dG*dT*dG*kG*kA*kG; antisense) [Compound 715415] | 24
715550 (kA*kG*kG*dA*dA*dG*dT*dT*dG*dT*dT*dG*dA*k[5mC]*k[5mC]*kA; antisense) [Compound 715550] | 70
715517 (kG*kG*k[5mC]*d[5mC]*dT*dA*dT*dG*dA*dG*dT*d[5mC]*dA*kA*k[5mC]*k[5mC]; antisense) [Compound 715517] | 109
715619 (antisense kA*kA*kA*dT*dA*dA*dG*dA*d[5mC]*dG*dG*dA*dT*kA*kA*kA) [Compound 715619] | 114
715625 (antisense kA*kT*kT*dG*d[5mC]*d[5mC]*dT*dA*dA*dG*dA*dG*dT*kA*kA*kA) [Compound 715625] | 99
715556 (kA*kA*kG*dT*dT*dA*dT*dT*d[5mC]*dA*dG*d[5mC]*dA*kG*k[5mC]*kT; antisense) [Compound 715556] | 63
715520 (kT*kT*k[5mC]*dT*dT*dT*d[5mC]*d[5mC]*dA*d[5mC]*dT*d[5mC]*dA*kA*kG*kT; antisense) [Compound 715520] | 122

Same assay, conditions: Table 2; A-431 cells, free uptake, 2,000 nM, approximately 48 hours, RTS4814; Yap1 mRNA relative to untreated control cells

Substance | YAP1 (% UTC)
715431 (k[5mC]*k[5mC]*kA*dT*d[5mC]*d[5mC]*dT*dG*dA*dG*dT*d[5mC]*dA*kT*kG*kG; antisense) [Compound 715431] | 99
715602 (antisense kA*k[5mC]*kA*dG*dA*dA*dT*dT*d[5mC]*d[5mC]*d[5mC]*dA*dA*kG*k[5mC]*kT) [Compound 715602] | 110
715587 (kT*kG*kA*dA*dA*dA*dG*dG*dT*d[5mC]*dT*dG*dG*kA*kA*k[5mC]; antisense) [Compound 715587] | 79
715518 (kT*kT*kT*dG*dG*dG*d[5mC]*dA*dA*dA*dG*dT*dT*k[5mC]*k[5mC]*kT; antisense) [Compound 715518] | 60
715608 (antisense kA*kA*kT*dT*dG*dT*dA*dT*d[5mC]*d[5mC]*dA*dG*dA*k[5mC]*kA*kT) [Compound 715608] | 100
715458 (antisense k[5mC]*kG*kA*dG*dA*dG*dT*dG*dA*dT*dA*dG*dG*kT*kG*k[5mC]) [Compound 715458] | 58
715569 (k[5mC]*kA*kA*dA*dG*dG*dT*dA*dG*dG*dA*dT*dA*kA*kA*kT; antisense) [Compound 715569] | 122
715455 (antisense kT*kG*kA*dT*dA*dG*dG*dT*dG*d[5mC]*d[5mC]*dA*d[5mC]*kT*kG*kT) [Compound 715455] | 65
715605 (antisense k[5mC]*kA*kT*dA*dG*d[5mC]*dA*d[5mC]*dA*dG*dA*dA*dT*kT*k[5mC]*k[5mC]) [Compound 715605] | 112
715590 (kT*kT*kG*dG*d[5mC]*dA*dG*dA*dG*dA*dT*dA*dA*kA*kA*k[5mC]; antisense) [Compound 715590] | 84
715515 (kT*kA*kT*dG*dA*dG*dT*d[5mC]*dA*dA*d[5mC]*d[5mC]*dT*kG*k[5mC]*kA; antisense) [Compound 715515] | 94
715467 (antisense k[5mC]*kA*kT*d[5mC]*dT*d[5mC]*d[5mC]*dT*dT*d[5mC]*d[5mC]*dA*dG*kT*kG*kT) [Compound 715467] | 77
715554 (kT*kA*kT*dT*d[5mC]*dA*dG*d[5mC]*dA*dG*d[5mC]*dT*dT*kA*kT*kA; antisense) [Compound 715554] | 93
715629 (antisense kG*kA*kG*d[5mC]*d[5mC]*dT*dA*d[5mC]*d[5mC]*dT*dG*dA*d[5mC]*kA*kT*kT) [Compound 715629] | 112
715452 (antisense kG*kT*k[5mC]*dA*dT*dT*dG*dT*dT*d[5mC]*dT*d[5mC]*dA*kA*kT*kT) [Compound 715452] | 71
